In PubChem BioAssay (NCI) one finds TGI and GI50 data, which are given here for ten compounds.

In general, TGI refers to the concentration giving total growth inhibition. Lower therefore signals more potent growth arrest. What is called GI50 is the concentration giving 50% growth inhibition.

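All cell lines were grown in 96-well plates and treated with compound for 48 hours. The concentration for 50% growth inhibition is given as GI50. TGI denotes the concentration required for complete inhibition of growth.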

Test systems include A549 NSCLC; BT-549 breast; CAKI-1 renal; CCRF-CEM leukemia; HCT-15 colon; HS 578T breast; MALME-3M melanoma; SF-539 CNS; TK-10 renal; UACC-257 melanoma.
Holding throughout (test): DTP human tumour cell line panel, 48 h

Take `COC1(OC)C2(Cl)C(Cl)=C(Cl)C1(Cl)C1c3ccc(C(C)=O)c4cccc(c34)C12` (stereo not given): the TGI was greater than 100 µM with A549 NSCLC; greater than 100 µM in the assay with BT-549 breast; greater than 100 µM with CAKI-1 renal; greater than 79.2 µM in the assay with CCRF-CEM leukemia; greater than 100 µM with HCT-15 colon; greater than 100 µM in the assay on HS 578T breast. For the same compound, the TGI in the assay with MALME-3M melanoma was 58 µM; in the assay on SF-539 CNS, greater than 100 µM; in the assay with TK-10 renal, greater than 100 µM; with UACC-257 melanoma, greater than 100 µM.
In the case of `CN(C)C[C@H]1CCn2c(c(C3=C(c4cn(C)c5ccccc45)C(=O)NC3=O)c3ccccc32)C1`, the GI50 in the assay on A549 NSCLC was 5.11 µM; in the assay on BT-549 breast, 4.83 µM; in the assay with CAKI-1 renal, 3.82 µM; in the assay on CCRF-CEM leukemia, 4.46 µM; with HCT-15 colon, 4.51 µM; with HS 578T breast, 2.78 µM. Besides, the GI50 in the assay with MALME-3M melanoma is 4.24 µM; in the assay with SF-539 CNS it was 4.01 µM; in the assay on TK-10 renal, 3.61 µM; with UACC-257 melanoma, 4.45 µM. Besides, the TGI in the assay on A549 NSCLC stood at 11.7 µM; with BT-549 breast it was 9.53 µM; in the assay with CAKI-1 renal, 8.74 µM; in the assay on CCRF-CEM leukemia, 12.4 µM; in the assay with HCT-15 colon it was 14.8 µM; in the assay with HS 578T breast, 10.1 µM. Besides, the TGI in the assay with MALME-3M melanoma was 8.56 µM; in the assay on SF-539 CNS, 7.73 µM; with TK-10 renal, 8.77 µM; in the assay with UACC-257 melanoma, 8.45 µM.
In the case of `Nc1ncn(C2OC(COP(=O)(O)O)C(O)C2O)c(=O)n1` (stereo not given), the TGI was greater than 100 µM with A549 NSCLC; greater than 100 µM in the assay on BT-549 breast; greater than 100 µM in the assay on CAKI-1 renal; greater than 52.4 µM in the assay with CCRF-CEM leukemia; greater than 100 µM in the assay with HCT-15 colon; greater than 100 µM in the assay with HS 578T breast. The TGI with MALME-3M melanoma, in the assay with SF-539 CNS, in the assay on TK-10 renal and in the assay on UACC-257 melanoma was greater than 100 µM throughout.
As for `COC12C=C/C(=C(/C(=O)OCCSc3ccnn3C)C(=O)CCCCCCCCC3(OC)C=C/C(=C(/C(=O)OCCSc4ccnn4C)C(=O)CCCCCCCC1)O3)O2`, the GI50 with A549 NSCLC is 0.882 µM; with BT-549 breast it was 0.954 µM; in the assay with CAKI-1 renal, 1.18 µM; with CCRF-CEM leukemia, 1.09 µM; in the assay on HCT-15 colon, 1.08 µM; in the assay with HS 578T breast it was 1.23 µM. Moreover, the GI50 in the assay on MALME-3M melanoma is 0.776 µM; in the assay with SF-539 CNS it was 1.16 µM; in the assay with TK-10 renal, 2.35 µM; in the assay with UACC-257 melanoma, 1.35 µM. Further, the TGI with A549 NSCLC is 2.66 µM; in the assay on BT-549 breast, 2.83 µM; in the assay with CAKI-1 renal, greater than 32.5 µM; with CCRF-CEM leukemia, greater than 32.5 µM; with HCT-15 colon, 4.39 µM; in the assay with HS 578T breast, greater than 32.5 µM. Further, the TGI in the assay with MALME-3M melanoma is 2.32 µM; with SF-539 CNS, 5.24 µM; in the assay with TK-10 renal, greater than 32.5 µM; with UACC-257 melanoma, 11.4 µM.
On to `Cc1ccc(-c2c(C#N)[n+](=O)c3cc(F)c(F)cc3n2[O-])cc1`, for which the GI50 was 28.2 µM with A549 NSCLC; 18.5 µM in the assay on BT-549 breast; 2.48 µM with CAKI-1 renal; 1.6 µM in the assay with CCRF-CEM leukemia; 1.2 µM in the assay on HCT-15 colon; 25.3 µM in the assay with HS 578T breast. The GI50 in the assay on MALME-3M melanoma was 2.06 µM; in the assay with SF-539 CNS it was 15.3 µM; with TK-10 renal, 2.37 µM; with UACC-257 melanoma, 23.5 µM. The TGI in the assay with A549 NSCLC is 86 µM; in the assay with BT-549 breast it was 33.7 µM; with CAKI-1 renal, 5.74 µM; in the assay with CCRF-CEM leukemia it was 4.41 µM; in the assay on HCT-15 colon, 3.75 µM; in the assay with HS 578T breast, greater than 100 µM. The TGI with MALME-3M melanoma is 5.23 µM; in the assay with SF-539 CNS, 33.9 µM; in the assay with TK-10 renal, 6.69 µM; with UACC-257 melanoma, 48.7 µM.
In the case of `CC(CN1CC(=O)NC(=O)C1)N1CC(=O)NC(=O)C1` (stereo not given), the TGI was greater than 750 µM in the assay with A549 NSCLC; greater than 750 µM in the assay with BT-549 breast; greater than 750 µM in the assay on CAKI-1 renal; greater than 662 µM with CCRF-CEM leukemia; greater than 750 µM with HCT-15 colon; greater than 391 µM in the assay on HS 578T breast. Further, the TGI in the assay on MALME-3M melanoma is 355 µM; in the assay on SF-539 CNS, greater than 750 µM; in the assay on TK-10 renal it was greater than 702 µM; in the assay on UACC-257 melanoma it was greater than 750 µM.
On to `O=C1OCC(c2ccc(O)cc2)=C1c1cc(O)c(O)c(O)c1`, for which the GI50 in the assay on A549 NSCLC was greater than 100 µM; in the assay on BT-549 breast, greater than 100 µM; with CAKI-1 renal it was 43.2 µM; with CCRF-CEM leukemia, 51.7 µM; in the assay with HCT-15 colon it was greater than 100 µM; in the assay with HS 578T breast, greater than 100 µM. Moreover, the GI50 in the assay on MALME-3M melanoma, in the assay with SF-539 CNS, in the assay on TK-10 renal and in the assay on UACC-257 melanoma was greater than 100 µM each time. Further, the TGI with A549 NSCLC is greater than 100 µM; in the assay on BT-549 breast it was greater than 100 µM; in the assay on CAKI-1 renal it was 89.6 µM; in the assay with CCRF-CEM leukemia it was greater than 100 µM; in the assay with HCT-15 colon, greater than 100 µM; in the assay on HS 578T breast, greater than 100 µM. In addition, the TGI with MALME-3M melanoma, with SF-539 CNS, in the assay with TK-10 renal and in the assay with UACC-257 melanoma was greater than 100 µM each time.
Regarding `COc1cc(OC)c(/C=C/C(=O)c2ccc(Nc3ncnc4ccccc34)cc2)c(OC)c1`, the GI50 is 0.665 µM in the assay on A549 NSCLC; 1.04 µM in the assay with BT-549 breast; 1.31 µM with CAKI-1 renal; 0.629 µM in the assay with CCRF-CEM leukemia; 0.798 µM with HCT-15 colon; 0.725 µM in the assay with HS 578T breast. Besides, the GI50 in the assay with MALME-3M melanoma is 0.799 µM; with SF-539 CNS, 0.837 µM; in the assay on TK-10 renal, 1.54 µM; with UACC-257 melanoma, 1.24 µM. Besides, the TGI worked out at 3.76 µM in the assay with A549 NSCLC; 3.62 µM in the assay with BT-549 breast; 15.2 µM in the assay with CAKI-1 renal; 5.51 µM in the assay with CCRF-CEM leukemia; 24.8 µM in the assay with HCT-15 colon; 5.66 µM in the assay on HS 578T breast. The TGI in the assay with MALME-3M melanoma was 2.65 µM; with SF-539 CNS it was 2.31 µM; in the assay with TK-10 renal, 3.68 µM; with UACC-257 melanoma, 3.89 µM.
As to `Cc1cc2c(cc1C)[n+](=O)c(C(=O)/C=C/c1ccc3c(c1)OCO3)c(C)n2[O-]`, the TGI was greater than 100 µM in the assay with A549 NSCLC; greater than 100 µM in the assay on BT-549 breast; greater than 89 µM in the assay with CAKI-1 renal; greater than 100 µM in the assay with CCRF-CEM leukemia; greater than 100 µM in the assay with HCT-15 colon; 64 µM in the assay on HS 578T breast. Also, the TGI in the assay on MALME-3M melanoma was greater than 100 µM; in the assay on SF-539 CNS, greater than 100 µM; with TK-10 renal, 53.3 µM; with UACC-257 melanoma, greater than 100 µM.
As to `CCn1c(-c2c(Cl)cc(O)cc2Cl)cc2c(Cl)cc(O)cc21`, the TGI is 44.2 µM in the assay on A549 NSCLC; 15.5 µM in the assay on BT-549 breast; 30.5 µM in the assay on CAKI-1 renal; greater than 100 µM with CCRF-CEM leukemia; 12.8 µM in the assay with HCT-15 colon; greater than 100 µM with HS 578T breast. The TGI stood at 39.3 µM with MALME-3M melanoma, 23.2 µM in the assay on SF-539 CNS, 59.2 µM in the assay with TK-10 renal and 26 µM in the assay with UACC-257 melanoma.
